Paper PMC10244169, “Psychedelics promote plasticity by directly binding to BDNF receptor TrkB” (Nature Neuroscience, 2023)

Experiments:
[1] = target: T1, TrkB:PLCγ1 colocalization (Rattus norvegicus, UniProt Q63604); test: dSTORM/TIRF single-molecule colocalization in dendritic spines of hippocampal neurons; type: cell-based; settings: 100 nM, 1 h; for Manders colocalization coefficient, group mean (5b) / Manders colocalization coefficient, group mean (5c): averaged per neuron; for Manders colocalization coefficient, group mean (5b): vehicle 0.2835; for Manders colocalization coefficient, group mean (5c): vehicle 0.3968
T1 construct: endogenous in cells; host or cells: rat hippocampal neuronal cultures (DIV21)
T1 sequence (Q63604 32-821): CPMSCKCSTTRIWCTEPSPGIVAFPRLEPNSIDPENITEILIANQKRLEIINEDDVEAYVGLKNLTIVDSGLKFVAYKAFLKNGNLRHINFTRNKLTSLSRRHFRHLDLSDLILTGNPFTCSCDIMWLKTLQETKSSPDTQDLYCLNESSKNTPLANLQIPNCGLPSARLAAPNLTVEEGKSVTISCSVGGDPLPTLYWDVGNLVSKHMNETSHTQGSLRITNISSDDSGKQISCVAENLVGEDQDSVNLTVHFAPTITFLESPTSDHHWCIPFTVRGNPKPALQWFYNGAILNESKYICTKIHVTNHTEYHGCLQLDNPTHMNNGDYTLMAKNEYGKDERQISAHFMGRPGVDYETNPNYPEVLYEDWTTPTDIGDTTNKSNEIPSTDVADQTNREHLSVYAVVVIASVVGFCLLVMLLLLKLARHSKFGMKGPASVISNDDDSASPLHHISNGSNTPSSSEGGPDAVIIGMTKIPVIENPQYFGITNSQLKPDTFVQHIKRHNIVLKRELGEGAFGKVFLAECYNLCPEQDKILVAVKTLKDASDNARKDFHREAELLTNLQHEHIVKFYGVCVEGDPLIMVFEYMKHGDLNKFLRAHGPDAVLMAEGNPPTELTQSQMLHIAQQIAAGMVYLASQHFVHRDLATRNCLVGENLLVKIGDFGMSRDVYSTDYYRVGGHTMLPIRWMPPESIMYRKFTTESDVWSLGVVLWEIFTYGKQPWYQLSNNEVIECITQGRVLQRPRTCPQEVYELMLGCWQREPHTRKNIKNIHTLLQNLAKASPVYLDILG
Method: Then, dishes were fixed with 4% paraformaldehyde (PFA) containing 0.1 µm TetraSpeck beads (Invitrogen, T7279; 1:100). After washing with PBS, dishes were incubated with the blocking buffer (0.1% Triton X-100, 0.05% Tween-20, 10% normal donkey serum, 1% BSA and 0.1% gelatin in PBS) for 1 h at room temperature. Next, dishes were incubated with goat anti-TrkB (R&D Systems, AF1494; 1:100) and rabbit anti-PLCγ1 (Cell Signaling Technologies, 5690S; 1:100) primary antibodies diluted in detergent-free blocking buffer overnight at 4 °C. After washing with PBS, dishes were incubated with Alexa Fluor 647-conjugated donkey anti-goat (Invitrogen, A32849; 1:500) and CF568-conjugated donkey anti-rabbit (Biotium, 20098; 1:500) secondary antibodies in PBS. Dishes were washed and stored in PBS until imaging. For dSTORM/TIRF, we used fresh blinking buffer (0.5 mg ml^−1 glucose oxidase, 40 µg ml^−1 catalase, 10% glucose, 10 mM NaCl, 10 mM cysteamine and 50 mM Tris–HCl, pH 8.0). We used a Nikon Eclipse Ti-E N-STORM/TIRF microscope equipped with an ApoTIRF 100×/1.49 numerical aperture (NA) objective, a Perfect Focus System for Z focus stabilization, an Andor iXon + 897 back-illuminated EMCCD camera (512 × 512), laser lines 405 nm (100 mW), 561 nm (150 mW) and 647 nm (300 mW) and a 405/488/561/647 nm laser quad band filter cube. Image acquisition was performed with the central 256 × 256 pixels and a total of 20,000 frames (exposure time of 15 ms) for both channels using the NIS-Elements Advanced Research software (Nikon). The 405 nm laser was progressively raised to maintain a constant number of localizations per frame. After chromatic aberration correction by correlation with the fluorescent bead fiducials, fitting of the blinking events to build the single-molecule localization coordinate map and drift correction were performed using the Huygens Localizer 21.04 software (Scientific Volume Imaging). Before identifying particles, the first 512 frames of each channel were discarded, a temporal filter length (factor 30) was applied to determine background signal, and data were prefiltered through the standard deviation of a Gaussian filter (σ = 1.0). Next, a threshold calculated from the standard deviation of unfiltered data was multiplied by a factor of 0.75 for the red and 1.5 for the far-red channels and applied to distinguish particles from the background. Pixels from filtered data with values larger than the threshold were considered as candidates for single-molecule localizations. Pixels in filtered data with higher values than surrounding pixels were detected as local maxima. The least-squares fitting was applied for subpixel localization of detected particles, with a fixed full width at half maximum of the Gaussian point spread function of 256 nm. Finally, the resulting single-molecule localization coordinate maps were analyzed with Coloc-Tesseler 1.0 (ref. [79]) by an experimenter blinded to treatment to compute the Manders colocalization coefficients of TrkB (M^TrkB) and PLCγ1 (M^PLCγ1) in dendritic spines on the basis of their overlapping Voronoi diagrams.

TrkB = target: T2, TrkB (Rattus norvegicus, UniProt Q63604); test: Competition binding with biotinylated R,R-HNK; settings: ext fig 1g
T2 construct: expressed in transfected cells; host or cells: HEK293T
T2 sequence (Q63604 32-821): as above
Method: Binding assays were performed as previously described with minor modifications. […] Samples from mouse embryo (E18) brains were also lysed, vortexed, sonicated and centrifuged for binding assays. Plates were then washed with PBS. […] For the competition binding assays with biotinylated R,R-HNK, the amino-biotinylation of R,R-HNK was performed using a commercial kit (Thermo Scientific, EZ-Link NHS-PEG4 Biotinylation Kit, 21455) and the reaction monitored by MS. A mixture of biotinylated R,R-HNK (10 µM) and unlabeled compounds (1 pM to 10 µM) in PBS was added to the 96-well plates containing the immunoprecipitated TrkB and incubated for 1 h at room temperature. […] Luminescence was determined via streptavidin conjugated with horseradish peroxidase (HRP; Thermo Fisher Scientific, 21126; 1:5,000, 1 h at room temperature) in reaction with the Pierce ECL substrate (Thermo Fisher Scientific, 32106). Luminescence from blank wells that contained all reagents but the sample lysates was used to determine nonspecific binding. To obtain the binding curves, results from binding assays were fitted to the equation of specific binding with Hill slope from GraphPad Prism 9.2. To calculate koff values, results were fitted to the equation of dissociation of one phase exponential decay from GraphPad Prism 9.2.

pERK = test: Western blot of ERK phosphorylation in cortical neurons; type: cell-based, rat
Method: In a separate set of experiments to examine the effect of 5-HT2A activation, M100907 (100 nM) was administered as a 10 min pretreatment and remained in the medium for the rest of the experiment. Next, cells were lysed and centrifuged. […] The co-immunoprecipitation was carried out as previously described[11],[23],[24] with minor modifications. Briefly, Magnetic Dynabeads Protein G (Invitrogen, 10004D) were coated with anti-TrkB antibody (R&D Systems, AF1494) at 200 ng of antibody per 1 µl of beads in rotation (2 h, 4 °C). Finally, lysates were mixed with the coated beads (100 µg of total protein per 15 µl of beads) and incubated in rotation (overnight, 4 °C).
Proteins were separated according to their molecular weight by SDS–PAGE and transferred to a polyvinylidene fluoride membrane. Membranes were incubated with the following primary antibodies (all 1:1,000 in 3% BSA in TBS-T, overnight, 4 °C): anti-TrkB (R&D Systems, AF1494), anti-β-actin (Sigma-Aldrich, A1978), anti-phospho-mTOR (Cell Signaling Technology, 5536S), anti-phospho-p44/42 MAPK (Erk1/2) (Cell Signaling Technology, 9106S), anti-mTOR (Cell Signaling Technology, 2972S) and anti-p44/42 MAPK (Erk1/2) (Cell Signaling Technology, 9102S). […] Protein bands were visualized using enhanced chemiluminescent substrate (Thermo Scientific, 32132, ECL Plus) and imaged with a charge-coupled device camera (G:BOX, Syngene).

Compound | TrkB:PLCγ1 colocalization in dendritic spines [1] | Manders colocalization coefficient, group mean (5b) [1] | Manders colocalization coefficient, group mean (5c) [1] | K (one phase decay, best-fit) (TrkB) | Plateau (one phase decay, best-fit) (TrkB) | Span (one phase decay, best-fit) (TrkB) | Tau (one phase decay, best-fit) (TrkB) | Y0 (one phase decay, best-fit) (TrkB) | phosphorylation of ERK (pERK) (pERK; LSD 100 nM) | pERK, group mean (5d) (pERK; LSD 100 nM, 5 min, vehicle 100) | pERK, group mean (5d) (pERK; LSD 100 nM, 1 h, vehicle 100) | pERK, group mean (5d) (pERK; LSD 100 nM, 24 h, vehicle 100) | pERK, group mean (5e) (pERK; M100907:LSD (LSD after M100907 pretreatment), vehicle 100) | pERK, group mean (5e) (pERK; Vehicle:LSD, vehicle 100) | pERK, column mean over timepoints (5d) (pERK; mean of 5 min, 1 h, 24 h, vehicle 100) | pERK, column mean of LSD (5e) (pERK; over vehicle and M100907 pretreatment, mean of vehicle 104) | effect of pretreatment on LSD-induced increase in pERK (pERK; M100907 100 nM) | pERK, group mean (5e) (pERK; M100907:Vehicle (M100907 100 nM alone), vehicle 100) | pERK, row mean of M100907 (5e) (pERK; over vehicle and LSD treatment, mean of vehicle row 184.0)
CN(C)CCc1c[nH]c2cccc(O)c12 [PSI, psilocin] | increase TrkB:PLCγ1 colocalization in dendritic spines | 0.5082 | 0.7477 | 89050556 | 38.6 | 50.23 | 1.12E-08 | 88.84 | – | – | – | – | – | – | – | – | – | – | –
CCN(CC)C(=O)C1C=C2c3cccc4[nH]cc(c34)CC2N(C)C1 (stereo not drawn) [LSD, lysergic acid diethylamide] | increase TrkB:PLCγ1 colocalization in dendritic spines | 0.6227 | 0.6899 | 638387713 | 36.42 | 48.28 | 1.57E-09 | 84.7 | rapidly increases phosphorylation of ERK (pERK) | 167.8 | 200.7 | 100.4 | 313.5 | 268.1 | 156.3 | 290.8 | – | – | –
COc1cccc([C@H](O)C2CCN(CCc3ccc(F)cc3)CC2)c1OC [M100907] | – | – | – | – | – | – | – | – | – | – | – | – | – | – | – | – | does not prevent LSD-induced increase in pERK | 108 | 210.8
